Patent US20070128217A1 (priority 2003, published 2007)

How the values were obtained:
[1] = test system: antibodies in sera from SARS patients (sera 1a, 1b, 2, 6, 37, 62, London, SARS-yellow, SARS-green); format: binding, human; parameters: Binding of serum 6 to linear peptides of protein X1 of SARS-CoV Urbani / Binding of serum 37 to linear peptides of protein X1 of SARS-CoV Urbani / Binding of serum 6 to looped/cyclic peptide (PEPSCAN-ELISA) / Binding of serum 37 to looped/cyclic peptide (PEPSCAN-ELISA) / Binding of serum 37 to looped/cyclic peptides of protein X1 of SARS-CoV Urbani / Binding of serum 6 to linear peptides of protein X2 / Binding of serum 37 to linear peptides of protein X2 / Binding of serum 37 to looped/cyclic peptides of protein X2 of SARS-CoV Urbani / Binding of serum 6 to linear peptides of protein M of SARS-CoV Urbani / Binding of serum 37 to linear peptides of protein M of SARS-CoV Urbani / Binding of serum 6 to looped/cyclic peptides of protein M of SARS-CoV Urbani / Binding of serum 37 to looped/cyclic peptides of protein M of SARS-CoV Urbani / Binding of serum 6 to linear peptides of protein X3 of SARS-CoV Urbani / Binding of serum 37 to linear peptides of protein X3 of SARS-CoV Urbani / Binding of serum 37 to looped/cyclic peptides of protein X3 of SARS-CoV Urbani / Binding of serum 6 to linear peptides of protein X4 of SARS-CoV Urbani / Binding of serum 37 to linear peptides of protein X4 of SARS-CoV Urbani / Binding of serum 37 to looped/cyclic peptides of protein X4 of SARS-CoV Urbani / Binding of serum 6 to linear peptides of protein X5 of SARS-CoV Urbani / Binding of serum 37 to linear peptides of protein X5 of SARS-CoV Urbani / Binding of serum 37 to looped/cyclic peptides of protein X5 of SARS-CoV Urbani / Binding of serum 6 to linear peptides of protein N of SARS-CoV Urbani / Binding of serum 37 to linear peptides of protein N of SARS-CoV Urbani / Binding of serum 6 to linear peptide (PEPSCAN-ELISA) / Binding of serum 1a to looped/cyclic peptides of protein N of SARS-CoV Urbani / Binding of serum 1b to looped/cyclic peptides of protein N of SARS-CoV Urbani / Binding of serum 2 to looped/cyclic peptides of protein N of SARS-CoV Urbani / Binding of serum 6 to looped/cyclic peptides of protein N of SARS-CoV Urbani / Binding of serum 37 to looped/cyclic peptides of protein N of SARS-CoV Urbani / Binding of serum 62 to looped/cyclic peptides of protein N of SARS-CoV Urbani / Binding of serum London to looped/cyclic peptides of protein N of SARS-CoV Urbani / Binding of serum SARS-green to looped/cyclic peptides of protein N of SARS-CoV Urbani: unit not given here
[2] = test system: control sera (pooled serum of ten healthy LUMC hospital workers; commercial negative donor pooled serum from the Dutch bloodbank); format: binding, human; parameters: Binding of Control serum LUMC to linear peptides / Binding of Control serum Blood-bank to linear peptides / Binding of Control serum LUMC to looped peptides / Binding of Control Serum Blood-Bank to Looped peptides / Binding of Control serum LUMC to linear peptides of the protein M of SARS-CoV Urbani / Binding of Control serum Blood-bank to linear peptides of the protein M of SARS-CoV Urbani / Binding of Control serum LUMC to looped peptides of the protein M of SARS-CoV Urbani / Binding of Control Serum Blood-Bank to Looped peptides of the protein M of SARS-CoV Urbani: unit not given here
[3] = test system: rabbit serum obtained by immunizing a rabbit with the SARS-CoV strain Frankfurt 1; format: binding; parameters: Binding of a rabbit serum to linear peptides / Binding of a rabbit serum to looped peptides / Rabbit serum linear peptides / Rabbit serum looped peptides / Binding of a rabbit serum to linear peptides of protein N of SARS-CoV Urbani (Rabbit serum linear peptides) / Binding of a rabbit serum to looped/cyclic peptides of protein N of SARS-CoV Urbani (Rabbit serum looped peptides): unit not given here
[4] = test system: recombinant human anti-SARS-CoV antibody 03-018; format: binding; parameters: Binding of antibody 03-018 to linear peptides of the N protein of SARS-CoV Urbani / Binding of antibody 03-018 to looped/cyclic peptides of the N protein of SARS-CoV Urbani: unit not given here

Sequence | Binding of serum 1a to linear peptides of protein N of SARS-CoV Urbani [1] | Binding of serum 1a to looped/cyclic peptides of protein N of SARS-CoV Urbani [1] | Binding of serum 1b to linear peptides of protein N of SARS-CoV Urbani [1] | Binding of serum 1b to looped/cyclic peptides of protein N of SARS-CoV Urbani [1] | Binding of serum 2 to linear peptides of protein N of SARS-CoV Urbani [1] | Binding of serum 2 to looped/cyclic peptides of protein N of SARS-CoV Urbani [1] | Binding of serum 6 to linear peptides of protein N of SARS-CoV Urbani [1] | Binding of serum 6 to looped/cyclic peptides of protein N of SARS-CoV Urbani [1] | Binding of serum 37 to linear peptides of protein N of SARS-CoV Urbani [1] | Binding of serum 37 to looped/cyclic peptides of protein N of SARS-CoV Urbani [1] | Binding of serum 62 to linear peptides of protein N of SARS-CoV Urbani [1] | Binding of serum 62 to looped/cyclic peptides of protein N of SARS-CoV Urbani [1] | Binding of serum London to linear peptides of protein N of SARS-CoV Urbani [1] | Binding of serum London to looped/cyclic peptides of protein N of SARS-CoV Urbani [1] | Binding of serum SARS-green to linear peptides of protein N of SARS-CoV Urbani [1] | Binding of serum SARS-green to looped/cyclic peptides of protein N of SARS-CoV Urbani [1] | Binding of serum SARS-yellow to linear peptides of protein N of SARS-CoV Urbani [1] | Binding of serum SARS-yellow to looped/cyclic peptides of protein N of SARS-CoV Urbani [1] | Binding of Control Serum Blood-Bank to Looped peptides [2] | Binding of Control serum Blood-bank to linear peptides [2] | further results
GGRNGARPKQRRPQG | 0.3 | 0.2 | 0.2 | 0.1 | 0.3 | 0.2 | 0.2 | 0.2 | 0.7 | 0.4 | 0.8 | 0.3 | 0.5 | 0.2 | 2.6 | 0.2 | 0.6 | 0.2 | 0.5 | 0.7 | Binding of Control serum LUMC to linear peptides [2]: 0.6; Binding of Control serum LUMC to looped peptides [2]: 0.5; Binding of a rabbit serum to linear peptides of protein N of SARS-CoV Urbani (Rabbit serum linear peptides) [3]: 0.2; Binding of a rabbit serum to looped/cyclic peptides of protein N of SARS-CoV Urbani (Rabbit serum looped peptides) [3]: 0.8; Binding of antibody 03-018 to linear peptides of the N protein of SARS-CoV Urbani [4]: 0.2; Binding of antibody 03-018 to looped/cyclic peptides of the N protein of SARS-CoV Urbani [4]: 0.2
LTQHGKEELRFPRGQ | 0.2 | 0.4 | 0.1 | 0.2 | 0.3 | 0.4 | 0.2 | 0.3 | 0.6 | 0.6 | 0.7 | 0.4 | 0.4 | 0.4 | 0.3 | 0.3 | 0.6 | 0.4 | 0.6 | 0.8 | Binding of Control serum LUMC to linear peptides [2]: 0.6; Binding of Control serum LUMC to looped peptides [2]: 0.6; Binding of a rabbit serum to linear peptides of protein N of SARS-CoV Urbani (Rabbit serum linear peptides) [3]: 0.1; Binding of a rabbit serum to looped/cyclic peptides of protein N of SARS-CoV Urbani (Rabbit serum looped peptides) [3]: 0.4; Binding of antibody 03-018 to linear peptides of the N protein of SARS-CoV Urbani [4]: 0.1; Binding of antibody 03-018 to looped/cyclic peptides of the N protein of SARS-CoV Urbani [4]: 0.2
